# Assay results: publication PMC5916922, “The Bexsero Neisseria meningitidis serogroup B vaccine antigen NHBA is a high-affinity chondroitin sulfate binding protein” (Scientific Reports, 2018)
# Counter-ions that a name gives are not always drawn. Like-named read-outs stand apart in the source and are kept apart here.
# Assays:
# [1] = tested on: NHBA (Neisseria Heparin Binding Antigen), recombinant (Neisseria meningitidis MC58 (serogroup B)); assay: SPR; conditions: SPR: Biacore T200, CM5 chip, 1:5 dilution series 1 nM-100 uM, single cycle kinetics; ITC: nano-ITC, PBS-NHBA control (PBS implied); pH and temperature not …
# [2] = tested on: NHBA (Neisseria Heparin Binding Antigen), recombinant (Neisseria meningitidis MC58 (serogroup B)); assay: ITC; conditions: SPR: Biacore T200, CM5 chip, 1:5 dilution series 1 nM-100 uM, single cycle kinetics; ITC: nano-ITC, PBS-NHBA control (PBS implied); pH and temperature not …
# [3] = biological target: T1, NHBA (Neisseria Heparin Binding Antigen), recombinant (Neisseria meningitidis, UniProt Q7DD37); assay: SPR, single cycle kinetics, immobilised NHBA
# T1 construct: pET19b, His-tagged; forward primer codes from SPDVK (lipoprotein signal peptide removed); immobilised by amine coupling on CM5 chip
# [4] = read-out: KD (μM) (mean ± standard deviation); recombinant NHBA amine-coupled to CM5 chip; glycan in flow
# [5] = recombinant NHBA amine-coupled to CM5 chip; glycan in flow
# T1 sequence (Q7DD37 25-488): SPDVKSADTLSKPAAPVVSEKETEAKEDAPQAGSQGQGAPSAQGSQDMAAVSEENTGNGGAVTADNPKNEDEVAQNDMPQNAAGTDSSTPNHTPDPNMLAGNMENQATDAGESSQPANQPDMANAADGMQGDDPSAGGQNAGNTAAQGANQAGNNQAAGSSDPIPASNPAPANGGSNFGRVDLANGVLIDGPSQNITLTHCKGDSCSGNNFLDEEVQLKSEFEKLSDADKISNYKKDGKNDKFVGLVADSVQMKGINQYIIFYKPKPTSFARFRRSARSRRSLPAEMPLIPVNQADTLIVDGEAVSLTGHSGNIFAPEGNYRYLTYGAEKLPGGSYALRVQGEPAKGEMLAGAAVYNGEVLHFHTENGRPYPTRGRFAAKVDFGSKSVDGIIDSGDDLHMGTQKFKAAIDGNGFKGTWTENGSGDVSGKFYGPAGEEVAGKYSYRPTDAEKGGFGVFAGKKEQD
compound,measurement,setting,value
503 bp PCR fragment of N. meningitidis genomic DNA,Kd,[1],0.071 µM
same,Kd,[2],3.33 µM
"CC(=O)N[C@H]1C(O)O[C@H](CO)[C@@H](O[C@@H]2O[C@H](CO)[C@H](O[C@H]3O[C@H](CO)[C@H](O)[C@H](O)[C@H]3O)[C@H](O)[C@H]2O)[C@@H]1O (stereo partly drawn) [2E, P1 antigen]",Kd,[3]; [4],14.9 ± 3.48 µM
"CC(=O)N[C@H]1C(O)O[C@H](CO)[C@@H](O[C@@H]2O[C@@H](C)[C@@H](O)[C@@H](O)[C@@H]2O)[C@@H]1O[C@@H]1O[C@H](CO)[C@H](O)[C@H](OS(=O)(=O)O)[C@H]1O (stereo partly drawn) [8A, Sulfo Lewis A]",Kd,[3]; [4],33.4 ± 2.54 µM
"O=S(=O)(O)O[C@@H]1[C@H](O[C@H]2O[C@@H]3CO[C@H]([C@H]2O)[C@H]3O[C@@H]2O[C@H](CO)[C@H](O)[C@H](O[C@H]3O[C@@H]4CO[C@@H]([C@H]4O)[C@H]3O)[C@H]2O)[C@@H](O)C(O)O[C@@H]1CO (stereo partly drawn) [12B, Neocarratetraose-4^1-O-sulfate (Na+)]",Kd,[3]; [4],0.446 ± 0.151 µM
"CC(=O)N[C@H]1C(O)O[C@H](CO)[C@@H](O)[C@@H]1O[C@@H]1OC(C(=O)O)=C[C@H](O)[C@H]1O (stereo partly drawn) [13E, Hyaluronan disaccharide ΔDi-HA]",Kd,[3]; [4],0.13 ± 0.03 µM
CC(=O)N[C@H]1C(O)O[C@H](CO)[C@H](OS(=O)(=O)O)[C@@H]1O[C@@H]1OC(C(=O)O)=C[C@H](O)[C@H]1OS(=O)(=O)O (stereo partly drawn) [chondroitin disaccharide sulfated at 2 of GlcA/IdoA and 4 of GalNAc],Kd,[3]; [5],0.5 µM
CC(=O)N[C@H]1C(O)O[C@H](COS(=O)(=O)O)[C@H](O)[C@@H]1O[C@@H]1OC(C(=O)O)=C[C@H](O)[C@H]1OS(=O)(=O)O (stereo partly drawn) [chondroitin sulfate type D disaccharide],Kd,[3]; [5],0.0095 µM
"O=P(O)(O)OC[C@H]1O[C@@H](O)[C@H](O)[C@@H](O)[C@@H]1O [compound 46, β-Glc6P]",Kd,[3]; recombinant NHBA amine-coupled to CM5 chip; glycan in flow; read-out: KD (μM) (mean ± standard deviation),0.056 ± 0.025 µM
